Data as given in patent publication US11382907B2, “Methods and compositions for treating aging-associated impairments using CCR3-inhibitors” (Alkahest, Inc., priority 2017, dated 2022).
pKi: −log10 of the molar value. “Also recorded” adds a separate entry of the source. Like-named read-outs stand apart in the source and are kept apart here.

Columns and labels:
[1] = test system: aged C57Bl/6 mice; assay: Barnes maze test in aged mice; assay type: in vivo
From the text: A modified Barnes maze was used to assess spatial working/episodic like learning and memory. The Barnes maze apparatus consists of a 122 cm diameter circular platform with 40 escape holes, each with a diameter of 5 cm placed along three rings of varying distances from the center of the platform. An escape box is attached to one of the holes and all holes are left uncovered. Bright lights and a fan are trained on the maze to provide adverse stimuli to encourage escape. Visual cues are placed on all four sides of the maze. Mice are given a series of 4 or 5 trials with inter-trial intervals of approximately 10 min, and the maximum duration of each trial is 90 or 120 sec. For each trial, mice are placed in the center of the maze. After 10 seconds, mice are allowed to explore, and the trial is ended if the mouse has found and entered an escape box before the end of the trial. Mice that cannot find the escape box are led to it and allowed to enter and given 30 sec to remain before being returned to its home cage. Training is done for 4 days. Data that is recorded and analyzed include velocity, escape latency, and distance moved.
Mice are divided into groups of 4-5 mice each, with balanced treatment groups. For example, Group 1 mice are run for 4 trials, then Group 2 mice are run for 4 trials, and so on until all groups finish testing. 70% ethanol is used to clean the arenas between trials.
Three-month-old or 16.5-month-old C57Bl/6 mice were dosed with either vehicle control or Compound 1 subcutaneously by Alzet osmotic pump for 4 weeks. During the last week of treatment, mice were subjected to behavior testing prior to perfusion on the last day of treatment. All mice received 5 consecutive days of BrdU injection at 150 mg/kg IP immediately prior to treatment start.
(§1) 23-month-old C57Bl/6 mice were dosed with either vehicle control or Compound 1 subcutaneously twice daily for 21 days. Three weeks later, mice were subjected to behavior testing, and sacrificed the day following the last behavior test.

[2] = molecular target: T1, CCR3 (Mus musculus, UniProt P51678); assay: cell line receptor binding (Ki for the compound in mice); details: determined by cell line receptor binding
T1 construct: host or cells: unnamed cell line
T1 sequence (P51678 1-359): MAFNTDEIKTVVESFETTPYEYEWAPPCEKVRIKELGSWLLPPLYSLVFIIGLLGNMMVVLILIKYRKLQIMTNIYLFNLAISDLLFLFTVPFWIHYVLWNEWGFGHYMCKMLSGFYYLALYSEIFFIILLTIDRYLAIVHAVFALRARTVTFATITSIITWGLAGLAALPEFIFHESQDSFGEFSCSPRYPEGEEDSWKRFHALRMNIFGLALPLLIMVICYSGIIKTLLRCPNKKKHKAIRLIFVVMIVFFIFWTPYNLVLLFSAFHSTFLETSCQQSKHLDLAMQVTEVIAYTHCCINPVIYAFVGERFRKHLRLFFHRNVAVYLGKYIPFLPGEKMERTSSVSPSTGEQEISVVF

[3] = Pharmacokinetic profile after P.O. dosing (plasma concentration); assay type: in vivo; details: mouse, 30 mg/kg oral gavage, male 2-month-old C57Bl/6 mice, for 8 hours, read-out: plasma concentration of Compound 1 maintained for 8 hours
Procedure: (§2) Compound levels were measured by MS/MS by Quintara (Hayward, Calif.).
Plasma from male 2-month-old C57Bl/6 mice was measured for concentrations of Compound 1 at time points of 20 minutes, 2 hours, 8 hours, and 12 hours after oral gavage at 2 doses: 30 mg/kg and 150 mg/kg.

[4] = test system: aged C57Bl/6 mice; assay: Open Field test in aged mice; assay type: in vivo; details: 23-month-old mice; 30 mg/kg SQ BID 21 days, tested three weeks later
Procedure: Open Field is used to evaluate general locomotor activity and exploratory behavior in a novel environment. Mice are brought to the experimental room for at least 30 min for acclimation to the experimental room conditions (dim lighting) prior to testing. The testing arena consists of a 50 cm×50 cm square arena. Mice are placed in the center of an arena and tracked for 15 minutes. Time spent in the peripheral and centers zones is analyzed, along with rearing behavior. 70% ethanol is used to clean all surfaces between trials.
as §1

[5] = test system: twenty-four-month-old C57 mice; assay: Overnight fecal output, water and food intake in aged mice; assay type: in vivo; details: 4 weeks continuous infusion by osmotic pump
Procedure: Twenty-four-month-old C57 mice were treated for 4 weeks with continuous infusion of Compound 1 or vehicle by Alzet osmotic pump, which were implanted to continuously deliver the two treatments.
Treatment Groups: • Treatment Group 1, Old Controls: Aged C57BL/6 mice (n=15), aged 23 months, received infusion of vehicle by Alzet mini-pump, model 2002 (0.5 uL/hr), for four weeks with one replacement. • Treatment Group 2, Compound 1 (dose 2) in Old: Aged C57BL/6 mice (n=15), aged 23 months, received infusion of ˜50 mg/ml Compound 1 by Alzet mini-pump, model 2002 (0.5 uL/hr), for four weeks with one replacement.
Fecal output was measured by weighing the dry weight of fecal pellets overnight (FIG. 22). […] is a well-known symptom of Parkinson's disease. Water and food intake were measured over the same time period.

[6] = Compound cerebrospinal fluid levels in mice (mass spectroscopy); assay type: in vivo, C57BL/6 mice; details: for concentration at 4 weeks: C57BL/6, mouse, cerebrospinal fluid, subcutaneous, 16.5-month-old old group, read-out: level of Compound 1 in CSF
Procedure: as §2
Cerebrospinal fluid (CSF) from both the 2-month-old “young” and 16.5-month-old “old” groups was collected and levels of Compound 1 were determined by mass spectroscopy. FIG. 6 depicts the levels of the compound of the invention that were detected in mouse CSF for both the young and old groups (both below 10 nM).

[7] = test system: blood eosinophils; assay: Blood eosinophils in aged mice (FACS); assay type: in vivo, C57Bl/6 mice; details: 23-month-old mice, 30 mg/kg SQ BID 30 days, subset n=2, 5
Procedure: 200 uL of whole blood was collected during perfusion and shipped to Charles River Clinical Pathology Services (Shrewsbury, Mass.) for hematology analysis of eosinophil count by FACS (fluorescence activated cell sorter).
23-month-old C57Bl/6 mice were dosed with either vehicle control or Compound 1 subcutaneously twice daily for 30 days, and then sacrificed on the day of the last injection.
Treatment Groups: • Treatment Group 1a, Vehicle treatment: Aged C57Bl/6 mice (n=9), aged 23 months, received twice daily (BID) subcutaneous (SQ) treatment of vehicle solution for 30 days. • Treatment Group 3, Compound 1 treatment: Aged C57Bl/6 mice (n=18), aged 23 months, received twice daily (BID) subcutaneous (SQ) treatment of Compound 1, 30 mg/kg, for 30 days.

[8] = 16.5-month-old mice, 4-week dosing by pump
[9] = 23-month-old mice, 30 mg/kg SQ BID 21 days, tested three weeks later

SMILES: Cc1cc(C(=O)N(C)C)cc(NC(=O)[C@H]2CCC(=O)N2C2CCN(Cc3ccc(Cl)c(C)c3)CC2)n1 [Compound 1]
- Barnes maze average of the latency for day 4 trials [1, 8]: Trends for improved memory
- Barnes maze difference between the latencies of trials 13 and 16 [1, 8]: Trends for improved memory
- performance in the Barnes maze [1, 8]: trended towards improved performance
- Barnes Maze spatial memory performance [1, 9]: performed significantly better
- velocity during the Barnes Maze test [1, 9]: exhibited increased velocity
- pKi [2]: 6.91
- concentration at 8 hours [3]: > 100 nM
- Open Field distance travelled [4]: strong trends towards improvement
- Open Field velocity [4]: strong trends towards improvement
- fecal output overnight [5]: significantly lower fecal output
- food intake overnight [5]: no differences in total food intake
- water intake overnight [5]: significantly higher water intake; also recorded: drank significantly more water
- concentration at 4 weeks ([6]; 50 mg/mL solution infused at 0.5 μL/hour by Alzet mini-pump, mass spectroscopy): < 10 nM
- concentration at 4 weeks ([6]; mass spectroscopy): < 10 nM
- difference in BBB penetration between young and old mice ([6]; mouse, in vivo): no difference in BBB penetration between young and old mice
- crossing of the blood-brain barrier (CSF levels versus Ki) ([6]; young and old mice): do not cross the blood-brain barrier (BBB) in significant concentrations
- level of Compound 1 in CSF ([6]; young group, mass spectroscopy): below 10 nM
- blood eosinophils (percentage of WBC count) [7]: strong trend towards decreased blood eosinophils; also recorded: decreased an endogenous age-related increase in blood eosinophils
